{"source": "patent EP1780283A1", "about": "“Trophic conversion of obligate photographic algae through metabolic engineering” (MARTEK BIOSCIENCES CORPORATION, priority 2000, dated 2001)", "key": {"[1]": {"tested_on": "human Glut1 glucose transporter (Glut1, from human erythrocytes), expressed in P. tricornutum transformants Glut-13 and Glut-17", "assay": "Glucose uptake kinetics (D-14C-glucose) of glut1 containing P. tricornutum transformants", "format": "cell-based, Phaeodactylum tricornutum", "settings": "cell line Glut-13; 5x10^-4 of Cytochalasin B (unit not given)"}, "[2]": {"tested_on": "Cyclotella cryptica", "assay": "Antibiotic sensitivity of diatoms on solid media", "format": "cell-based", "settings": "for lowest concentration of antibiotic per ml required for cell death or the lowest concentration tested: reduced salinity, 10% of normal seawater", "procedure": "(§1) The diatoms Phaeodactylum tricornutum, Cylindrotheca fusiformis, Cyclotella cryptica and Nitzschia alba were extensively tested for sensitivity to a series of antibiotics for which resistance genes are available, and the lowest concentrations which completely abrogate growth were determined for each antibiotic (Table C). […] These include antibiotics such as G418, Hygromycin, Kanamycin and Spectinomycin, which are routinely utilized for selection of other eukaryotic organisms.\n(§2) The effective concentration range of the antibiotic in most cases was lowered by a factor of 10.\n(§3) Cells of each diatom species were plated on solid media at salinity equivalents of 25-100% I.O. media, with a gradient of antibiotic concentrations. After 2 weeks of illumination the growth of the cells was assessed and the concentration of antibiotic required for cell death was determined. (Table D). Table C. Effect of antibiotics on the growth of selected diatoms. Values represent the lowest concentration of the antibiotic per ml required for cell death or the highest concentration tested.\n(§4) Table D. Effect of antibiotics on the growth of selected diatoms in media with reduced salinity. The relative percentage of salinity verses normal seawater of the medium is given in parentheses. Antibiotic levels are given as the lowest concentration of antibiotic per ml required for cell death or the lowest concentration tested."}, "[3]": {"tested_on": "Phaeodactylum tricornutum", "assay": "Antibiotic sensitivity of diatoms on solid media", "format": "cell-based", "settings": "for lowest concentration of antibiotic per ml required for cell death or the lowest concentration tested: reduced salinity", "procedure": "as §1, §2, §3, §4"}, "[4]": {"tested_on": "Cylindrotheca fusiformis", "assay": "Antibiotic sensitivity of diatoms on solid media", "format": "cell-based", "settings": "for lowest concentration of antibiotic per ml required for cell death or the lowest concentration tested: reduced salinity", "procedure": "as §1, §2, §3, §4"}, "[5]": {"tested_on": "Nitzschia alba", "assay": "Antibiotic sensitivity of diatoms on solid media", "format": "cell-based", "procedure": "as §1, §3"}, "[6]": {"settings": "C. cryptica, solid media, 100% I.O. media, 2 weeks of illumination"}, "[7]": {"settings": "P. tricornutum, solid media, 100% I.O. media, 2 weeks of illumination"}, "[8]": {"settings": "C. fusiformis, solid media, 100% I.O. media, 2 weeks of illumination"}, "[9]": {"settings": "N. alba, solid media, 100% I.O. media, 2 weeks of illumination"}, "[10]": {"settings": "P. tricornutum, 50% of normal seawater"}, "[11]": {"settings": "C. fusiformis, 25% of normal seawater"}, "[12]": {"settings": "C. fusiformis, 50% of normal seawater"}, "[13]": {"settings": "P. tricornutum, 25% of normal seawater"}}, "note": "Read-outs that look alike come from different tables or passages of the source.", "data": [{"compound": "C=C1C(C)C2C(Cc3ccccc3)NC(=O)C23OC(=O)C=CC(O)CCCC(C)CC=CC3C1O", "note": "(centres unmarked) [Cytochalasin B]", "values": [{"measurement": "glucose uptake in the presence of Cytochalasin B", "setting": "[1]", "result": "reduced to an undetectable level"}]}, {"compound": "CN[C@@H]1[C@@H](O)[C@@H](O[C@@H]2[C@@H](O)[C@H](O[C@H]3O[C@H]([C@@H](C)O)[C@@H](O)[C@H](O)[C@H]3N)[C@@H](N)C[C@H]2N)OC[C@]1(C)O", "note": "[G418]", "values": [{"measurement": "lowest concentration of the antibiotic per ml required for cell death or the highest concentration tested", "setting": "[2]; [6]", "result": 250, "unit": "mg mg per ml"}, {"measurement": "lowest concentration of the antibiotic per ml required for cell death or the highest concentration tested", "setting": "[3]; [7]", "result": "> 1", "unit": "mg mg per ml"}, {"measurement": "lowest concentration of the antibiotic per ml required for cell death or the highest concentration tested", "setting": "[4]; [8]", "result": "> 1", "unit": "mg mg per ml"}, {"measurement": "lowest concentration of the antibiotic per ml required for cell death or the highest concentration tested", "setting": "[5]; [9]", "result": "> 500", "unit": "mg mg per ml"}]}, {"compound": "CN[C@@H]1C[C@H](N)[C@@H](O)[C@H](O[C@H]2O[C@H](CO)[C@H](O)[C@@H]3O[C@@]4(O[C@@H]23)O[C@H]([C@H](N)CO)[C@H](O)[C@H](O)[C@H]4O)[C@H]1O", "note": "[Hygromycin]", "values": [{"measurement": "lowest concentration of the antibiotic per ml required for cell death or the highest concentration tested", "setting": "[2]", "result": "> 500", "unit": "mg"}, {"measurement": "lowest concentration of the antibiotic per ml required for cell death or the highest concentration tested", "setting": "[3]", "result": "> 1", "unit": "mg"}, {"measurement": "lowest concentration of the antibiotic per ml required for cell death or the highest concentration tested", "setting": "[4]", "result": 500, "unit": "mg"}, {"measurement": "lowest concentration of the antibiotic per ml required for cell death or the highest concentration tested", "setting": "[5]", "result": "> 500", "unit": "mg"}]}, {"compound": "Cc1c(N)nc([C@H](CC(N)=O)NC[C@H](N)C(N)=O)nc1C(=O)N[C@H](C(=O)N[C@H](C)[C@@H](O)[C@H](C)C(=O)N[C@H](C(=O)NCCC1=N[C@@H](c2nc(C(=O)NCCCCN=C(N)N)cs2)CS1)[C@@H](C)O)[C@@H](O[C@@H]1O[C@@H](CO)[C@@H](O)[C@H](O)[C@@H]1O[C@H]1O[C@H](CO)[C@@H](O)[C@H](OC(N)=O)[C@@H]1O)c1cnc[nH]1", "note": "[Zeocin]", "values": [{"measurement": "lowest concentration of antibiotic per ml required for cell death or the lowest concentration tested", "setting": "[2]; C. cryptica", "result": "< 5 mg (10%) mg per ml"}, {"measurement": "lowest concentration of the antibiotic per ml required for cell death or the highest concentration tested", "setting": "[2]; [6]", "result": 250, "unit": "mg mg per ml"}, {"measurement": "lowest concentration of antibiotic per ml required for cell death or the lowest concentration tested", "setting": "[3]; [10]", "result": "25 mg (50%) mg per ml"}, {"measurement": "lowest concentration of the antibiotic per ml required for cell death or the highest concentration tested", "setting": "[3]; [7]", "result": 50, "unit": "mg mg per ml"}, {"measurement": "lowest concentration of antibiotic per ml required for cell death or the lowest concentration tested", "setting": "[4]; [11]", "result": "100 mg (25%) mg per ml"}, {"measurement": "lowest concentration of antibiotic per ml required for cell death or the lowest concentration tested", "setting": "[4]; [12]", "result": "250 mg (50%) mg per ml"}, {"measurement": "lowest concentration of the antibiotic per ml required for cell death or the highest concentration tested", "setting": "[4]; [8]", "result": "> 250", "unit": "mg mg per ml"}, {"measurement": "lowest concentration of the antibiotic per ml required for cell death or the highest concentration tested", "setting": "[5]; [9]", "result": "> 250", "unit": "mg mg per ml"}]}, {"compound": "Bleomycin", "values": [{"measurement": "lowest concentration of the antibiotic per ml required for cell death or the highest concentration tested", "setting": "[3]; [7]", "result": "> 50", "unit": "mg mg per ml"}, {"measurement": "lowest concentration of the antibiotic per ml required for cell death or the highest concentration tested", "setting": "[4]; [8]", "result": "> 50", "unit": "mg mg per ml"}]}, {"compound": "Neomycin", "values": [{"measurement": "lowest concentration of the antibiotic per ml required for cell death or the highest concentration tested", "setting": "[2]; [6]", "result": "> 1", "unit": "mg mg per ml"}, {"measurement": "lowest concentration of the antibiotic per ml required for cell death or the highest concentration tested", "setting": "[3]; [7]", "result": "> 1", "unit": "mg mg per ml"}, {"measurement": "lowest concentration of the antibiotic per ml required for cell death or the highest concentration tested", "setting": "[4]; [8]", "result": "> 1", "unit": "mg mg per ml"}, {"measurement": "lowest concentration of the antibiotic per ml required for cell death or the highest concentration tested", "setting": "[5]; [9]", "result": "> 1", "unit": "mg mg per ml"}]}, {"compound": "Nourseothricin", "values": [{"measurement": "lowest concentration of antibiotic per ml required for cell death or the lowest concentration tested", "setting": "[2]; C. cryptica", "result": "< 5 mg (10%) mg per ml"}, {"measurement": "lowest concentration of the antibiotic per ml required for cell death or the highest concentration tested", "setting": "[2]; [6]", "result": ">250", "unit": "mg mg per ml"}, {"measurement": "lowest concentration of antibiotic per ml required for cell death or the lowest concentration tested", "setting": "[3]; [13]", "result": "10 mg (25%) mg per ml"}, {"measurement": "lowest concentration of antibiotic per ml required for cell death or the lowest concentration tested", "setting": "[3]; [10]", "result": "25 mg (50%) mg per ml"}, {"measurement": "lowest concentration of the antibiotic per ml required for cell death or the highest concentration tested", "setting": "[3]; [7]", "result": 250, "unit": "mg mg per ml"}, {"measurement": "lowest concentration of antibiotic per ml required for cell death or the lowest concentration tested", "setting": "[4]; [11]", "result": "< 10 mg (25%) mg per ml"}, {"measurement": "lowest concentration of antibiotic per ml required for cell death or the lowest concentration tested", "setting": "[4]; [12]", "result": "50 mg (50%) mg per ml"}, {"measurement": "lowest concentration of the antibiotic per ml required for cell death or the highest concentration tested", "setting": "[4]; [8]", "result": "> 250", "unit": "mg mg per ml"}, {"measurement": "lowest concentration of the antibiotic per ml required for cell death or the highest concentration tested", "setting": "[5]; [9]", "result": "> 250", "unit": "mg mg per ml"}]}, {"compound": "Phleomycin", "values": [{"measurement": "lowest concentration of antibiotic per ml required for cell death or the lowest concentration tested", "setting": "[2]; C. cryptica", "result": "< 5 mg (10%) mg per ml"}, {"measurement": "lowest concentration of the antibiotic per ml required for cell death or the highest concentration tested", "setting": "[2]; [6]", "result": 25, "unit": "mg mg per ml"}, {"measurement": "lowest concentration of antibiotic per ml required for cell death or the lowest concentration tested", "setting": "[3]; [13]", "result": "< 5 mg (25%) mg per ml"}, {"measurement": "lowest concentration of antibiotic per ml required for cell death or the lowest concentration tested", "setting": "[3]; [10]", "result": "< 5 mg (50%) mg per ml"}, {"measurement": "lowest concentration of the antibiotic per ml required for cell death or the highest concentration tested", "setting": "[3]; [7]", "result": 5, "unit": "mg mg per ml"}, {"measurement": "lowest concentration of antibiotic per ml required for cell death or the lowest concentration tested", "setting": "[4]; [11]", "result": "< 5 mg (25%) mg per ml"}, {"measurement": "lowest concentration of antibiotic per ml required for cell death or the lowest concentration tested", "setting": "[4]; [12]", "result": "25 mg (50%) mg per ml"}, {"measurement": "lowest concentration of the antibiotic per ml required for cell death or the highest concentration tested", "setting": "[4]; [8]", "result": 25, "unit": "mg mg per ml"}, {"measurement": "lowest concentration of the antibiotic per ml required for cell death or the highest concentration tested", "setting": "[5]; [9]", "result": "> 50", "unit": "mg mg per ml"}]}]}
